Results published in patent US20090285791A1, “Regenerating and enhancing development of muscle tissue” (Sbarro Health Research Organization, Inc., priority 2008, published 2009).

Legend:
cdk9-55 = cdk9-55 (Homo sapiens, UniProt P50750); settings: Shore et al. 2003; Liu and Herman 2005; cited from earlier work
C2C12 cells = assay: C2C12 myoblast differentiation in the presence of kinase inhibitor DRB; assay type: cell-based, mouse; settings: C2C12 induced to differentiate
Protocol: C2C12 cells were grown in DMEM supplemented with 20% FBS (GM) or with 2% HS (DM).
Immunoprecipitations were performed with anti-MyoD antibody (Santa Cruz, Calif.) followed by the addition of protein A-sepharose. Beads were extensively washed and loading buffer without β-mercaptoethanol was added at 4° C. to work in non-denaturing conditions. Samples were resolved in PAA-Gels and transferred to a Hybond-ECL nitrocellulose (Amersham, IL). The blots were blocked with TBST containing 5% non-fat dry milk. Antibodies specific for cdk9, myogenin, MHC, RNAPolII, P-Serine2-CTD, Desmin and tubulin were used as described in Simone et al., 2002; Giacinti et al., 2006. Anti-rabbit and anti-mouse peroxidase conjugated and ECL detection system (Amersham, IL) were used for detection.
Since cdk9-55 activity, as well as cdk9-42 activity (Shore et al., Gene 307, 175-182, 2003; Liu and Herman, J. Cell. Physiol. 203, 251-260, 2005), could be inhibited by pharmacological blockade, C2C12 cells were induced to differentiate with the kinase specific inhibitor DRB.

cdk9-55, sequence (P50750 1-489 isoform P50750-2): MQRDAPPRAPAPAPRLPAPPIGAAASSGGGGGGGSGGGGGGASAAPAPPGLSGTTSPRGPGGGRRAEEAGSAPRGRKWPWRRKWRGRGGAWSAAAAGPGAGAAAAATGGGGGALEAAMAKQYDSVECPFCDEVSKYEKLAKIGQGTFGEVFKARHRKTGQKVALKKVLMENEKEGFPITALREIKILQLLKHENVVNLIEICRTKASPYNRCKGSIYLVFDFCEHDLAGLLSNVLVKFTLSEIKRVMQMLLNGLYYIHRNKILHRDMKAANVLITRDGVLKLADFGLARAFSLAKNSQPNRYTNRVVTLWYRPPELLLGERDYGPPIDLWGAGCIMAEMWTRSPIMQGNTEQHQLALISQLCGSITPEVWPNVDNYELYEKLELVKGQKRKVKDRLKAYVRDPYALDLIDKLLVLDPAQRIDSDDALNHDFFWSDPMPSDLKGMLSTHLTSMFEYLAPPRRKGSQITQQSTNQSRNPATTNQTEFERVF
cdk9-55, sequence (O60563 whole entry partner): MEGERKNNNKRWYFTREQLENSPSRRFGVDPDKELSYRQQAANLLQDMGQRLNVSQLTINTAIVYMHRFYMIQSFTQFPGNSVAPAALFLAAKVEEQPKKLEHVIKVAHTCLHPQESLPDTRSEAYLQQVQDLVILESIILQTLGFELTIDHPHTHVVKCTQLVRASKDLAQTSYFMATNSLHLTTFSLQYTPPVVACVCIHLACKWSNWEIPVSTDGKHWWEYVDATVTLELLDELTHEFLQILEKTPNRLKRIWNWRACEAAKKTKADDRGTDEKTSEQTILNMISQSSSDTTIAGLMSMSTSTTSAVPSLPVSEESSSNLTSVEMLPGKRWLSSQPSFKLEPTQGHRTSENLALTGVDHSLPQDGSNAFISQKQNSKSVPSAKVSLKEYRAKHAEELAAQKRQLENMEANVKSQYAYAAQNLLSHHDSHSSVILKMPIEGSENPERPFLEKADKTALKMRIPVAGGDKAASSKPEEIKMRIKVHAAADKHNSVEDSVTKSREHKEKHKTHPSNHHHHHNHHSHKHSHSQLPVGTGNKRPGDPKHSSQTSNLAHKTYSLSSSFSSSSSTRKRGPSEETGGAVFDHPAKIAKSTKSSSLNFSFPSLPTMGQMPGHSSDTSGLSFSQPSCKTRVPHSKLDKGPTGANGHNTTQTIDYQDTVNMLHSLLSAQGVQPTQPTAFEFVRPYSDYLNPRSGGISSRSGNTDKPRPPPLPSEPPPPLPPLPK

## OC[C@H]1O[C@@H](n2cnc3cc(Cl)c(Cl)cc32)[C@H](O)[C@@H]1O [DRB, 5,6-dichloro-1-β-d-ribofuranosylbenzimidazole]
cdk9-55
  cdk9-55 kinase activity: specifically inhibited
C2C12 cells; DRB 100 μM
  multinucleated myotubes: absence of multinucleated myotubes
C2C12 cells; DRB 100 μM (FIG. 1D, 1E)
  terminal differentiation: failed to undergo terminal differentiation
C2C12 cells; DRB 100 μM, immunoblot
  MHC levels: low MHC levels
